US20150105252A1, “SUBSTITUTED PYRAZOLES AS HERBICIDES” (E I DU PONT DE NEMOURS AND COMPANY, priority 2013, published 2015)

Key:
pigweed [1] = test: Test A preemergence; assay type: in vivo, Amaranthus retroflexus
Summary of the method: (§1)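 Greenhouse test in loam soil/sand blend; compounds formulated in non-phytotoxic solvent with surfactant, applied as preemergence directed soil spray or postemergence to plants 2–10 cm tall at one- to two-leaf stage. Injury rated visually versus untreated controls after approximately 10 days on a 0 (no effect) to 100 (complete control) scale.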

crabgrass, large [2] = test: Test A postemergence; assay type: in vivo, Digitaria sanguinalis
Summary of the method: as §1

ducksalad [3] = test: Test B flood; assay type: in vivo, Heteranthera limosa; conditions: 250 g ai/ha, visual rating on 0 to 100 scale (0 no effect, 100 complete control), 13 to 15 days
Experimental: (§2) Seeds selected from rice (Oryza sativa), sedge, umbrella (small-flower umbrella sedge Cyperus difformis), ducksalad (Heteranthera limosa), and barnyardgrass (Echinochloa crus-galli) were grown to the 2-leaf stage for testing. At time of treatment, test pots were flooded to 3 cm above the soil surface, treated by application of test compounds directly to the paddy water, and then maintained at that water depth for the duration of the test.
(§3) Treated plants and controls were maintained in a greenhouse for 13 to 15 days, after which time all species were compared to controls and visually evaluated. Plant response ratings, summarized in Table B, are based on a scale of 0 to 100 where 0 is no effect and 100 is complete control. A dash (-) response means no test result.

pigweed [4] = test: Test A postemergence; assay type: in vivo, Amaranthus retroflexus
Summary of the method: as §1

foxtail, giant [5] = test: Test A preemergence; assay type: in vivo, Setaria faberii
Summary of the method: as §1

foxtail, giant [6] = test: Test A postemergence; assay type: in vivo, Setaria faberii
Summary of the method: as §1

morningglory [7] = test: Test A postemergence; assay type: in vivo, Ipomoea spp.
Summary of the method: as §1

morningglory [8] = test: Test A preemergence; assay type: in vivo, Ipomoea spp.
Summary of the method: as §1

barnyardgrass [9] = test: Test A postemergence; assay type: in vivo, Echinochloa crus-galli; conditions: Postemergence
Summary of the method: as §1

wheat [10] = test: Test A postemergence; assay type: in vivo, Triticum aestivum
Summary of the method: as §1

wheat [11] = test: Test A preemergence; assay type: in vivo, Triticum aestivum
Summary of the method: as §1

barnyardgrass [12] = test: Test A preemergence; assay type: in vivo, Echinochloa crus-galli
Summary of the method: as §1

corn [13] = test: Test A preemergence; assay type: in vivo, Zea mays
Summary of the method: as §1

velvetleaf [14] = test: Test A preemergence; assay type: in vivo, Abutilon theophrasti
Summary of the method: as §1

velvetleaf [15] = test: Test A postemergence; assay type: in vivo, Abutilon theophrasti
Summary of the method: as §1

sedge, umbrella [16] = test: Test B flood; assay type: in vivo, Cyperus difformis; conditions: 250 g ai/ha, visual rating on 0 to 100 scale (0 no effect, 100 complete control), 13 to 15 days
Experimental: as §2, §3

crabgrass, large [17] = test: Test A preemergence; assay type: in vivo, Digitaria sanguinalis
Summary of the method: as §1

rice [18] = test: Test B flood; assay type: in vivo, Oryza sativa; conditions: 250 g ai/ha, visual rating on 0 to 100 scale (0 no effect, 100 complete control), 13 to 15 days
Experimental: as §2, §3

barnyardgrass [19] = test: Test B flood; assay type: in vivo, Echinochloa crus-galli; conditions: 250 g ai/ha, visual rating on 0 to 100 scale (0 no effect, 100 complete control), 13 to 15 days
Experimental: as §2, §3

corn [20] = test: Test A postemergence; assay type: in vivo, Zea mays
Summary of the method: as §1

sedge, umbrella [21] = test: Test C flooded paddy test; assay type: in vivo, Cyperus difformis; conditions: Flood
Text: (§4) At time of treatment, test pots were flooded to 3 cm above the soil surface, treated by application of test compounds directly to the paddy water, and then maintained at that water depth for the duration of the test. Treated plants and controls were maintained in a greenhouse for 13 to 15 days, after which time all species were compared to controls and visually evaluated. […] A dash (-) response means no test result.

ducksalad [22] = test: Test C flooded paddy test; assay type: in vivo, Heteranthera limosa; conditions: Flood
Text: as §4

rice [23] = test: Test C flooded paddy test; assay type: in vivo, Oryza sativa; conditions: Flood
Summary of the method: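 Visual injury ratings against untreated controls, taken 13 to 15 days after compound was added to paddy water standing 3 cm above the soil.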

barnyardgrass [24] = test: Test C flooded paddy test; assay type: in vivo, Echinochloa crus-galli; conditions: Flood
Text: as §4

[25] = preemergence, 125 g ai/ha, visual injury, 0 to 100 scale, approx. 10 days
[26] = preemergence, 500 g ai/ha, visual injury after approx. 10 days, 0 to 100 scale (0 no effect, 100 complete control)
[27] = Postemergence, 500 g ai/ha, visual rating after approx. 10 days, 0 to 100 scale (0 no effect, 100 complete control)
[28] = postemergence, 125 g ai/ha, about 10 days, visual rating on 0 to 100 scale (0 no effect, 100 complete control)
[29] = Preemergence, 1000 g ai/ha, 0 to 100 scale, 0 no effect, 100 complete control
[30] = 31 g ai/ha, scale 0 to 100 (0 no effect, 100 complete control)
[31] = 62 g ai/ha, scale 0 to 100 (0 no effect, 100 complete control)
[32] = Postemergence, 1000 g ai/ha, visual rating after approx. 10 days, 0 to 100 scale (0 no effect, 100 complete control)

In the case of `CCc1cc(C(=O)Nc2ccc(F)cc2)nn1Oc1ccnc(C(F)(F)F)c1` [Compound 89], the “Pigweed plant response rating” value (pigweed [1]; [25]) is reported as 0, the “Pigweed plant response rating” value (pigweed [1]; [26]) is reported as 0 and the “Crabgrass, Large plant response rating” value (crabgrass, large [2]; [27]) is reported as 0. The “Crabgrass, Large plant response rating” value (crabgrass, large [2]; [28]) was 0, the “Plant response rating, Ducksalad” value (ducksalad [3]) was 0 and the “Pigweed plant response rating” value (pigweed [4]; [27]) was 0. The “Pigweed plant response rating” value (pigweed [4]; [28]) was 0, the “Foxtail, Giant plant response rating” value (foxtail, giant [5]; [25]) was 0 and the “Foxtail, Giant plant response rating” value (foxtail, giant [5]; [26]) was 10. The “Foxtail, Giant plant response rating” value (foxtail, giant [6]; [27]) was 0, the “Foxtail, Giant plant response rating” value (foxtail, giant [6]; [28]) was 0 and the “Morningglory plant response rating” value (morningglory [7]; [27]) was 0. The “Morningglory plant response rating” value (morningglory [7]; [28]) was 0, the “Morningglory plant response rating” value (morningglory [8]; [25]) was 0 and the “Morningglory plant response rating” value (morningglory [8]; [26]) was 0. For the same compound, the “Barnyardgrass plant response rating” value (barnyardgrass [9]; 125 g ai/ha, 0 to 100 scale, 0 no effect, 100 complete control) was 0, the “Barnyardgrass plant response rating” value (barnyardgrass [9]; 500 g ai/ha, visual rating after approx. 10 days, 0 to 100 scale (0 no effect, 100 complete control)) was 0 and the “Wheat plant response rating” value (wheat [10]; [27]) was 0. The “Wheat plant response rating” value (wheat [10]; [28]) was 0, the “Wheat plant response rating” value (wheat [11]; [25]) was 0 and the “Wheat plant response rating” value (wheat [11]; [26]) was 0. For the same compound, the “Barnyardgrass plant response rating” value (barnyardgrass [12]; [25]) was 0, the “Barnyardgrass plant response rating” value (barnyardgrass [12]; [26]) was 0 and the “Corn plant response rating” value (corn [13]; [25]) was 0. The “Corn plant response rating” value (corn [13]; [26]) was 0, the “Velvetleaf plant response rating” value (velvetleaf [14]; [25]) was 0 and the “Velvetleaf plant response rating” value (velvetleaf [14]; [26]) was 0. For the same compound, the “Velvetleaf plant response rating” value (velvetleaf [15]; [27]) was 0, the “Velvetleaf plant response rating” value (velvetleaf [15]; [28]) was 0 and the “Plant response rating, Sedge, Umbrella” value (sedge, umbrella [16]) was 0. For the same compound, the “Crabgrass, Large plant response rating” value (crabgrass, large [17]; [25]) was 0, the “Crabgrass, Large plant response rating” value (crabgrass, large [17]; [26]) was 10 and the “Plant response rating, Rice” value (rice [18]) was 0. For the same compound, the “Plant response rating, Barnyardgrass” value (barnyardgrass [19]) was 0, the “Corn plant response rating” value (corn [20]; [27]) was 20 and the “Corn plant response rating” value (corn [20]; [28]) was 0.

`CCCNC(=O)c1cc(CC)n(Cc2cccc(C(F)(F)F)c2)n1` [Compound 16] was tested, and the “Pigweed plant response rating” value (pigweed [1]; [29]) was 100, the “Plant response rating, Sedge, Umbrella” value (sedge, umbrella [21]; [30]) was 70 and the “Plant response rating, Sedge, Umbrella” value (sedge, umbrella [21]; [31]) was 85. For the same compound, the “Plant response rating, Sedge, Umbrella” value (sedge, umbrella [21]; 125 g ai/ha, scale 0 to 100) was 100, the “Plant response rating, Sedge, Umbrella” value (sedge, umbrella [21]; 250 g ai/ha, scale 0 to 100) was 100 and the “Crabgrass, Large plant response rating” value (crabgrass, large [2]; [32]) was 80. The “Plant response rating, Ducksalad” value (ducksalad [22]; [30]) was 50, the “Plant response rating, Ducksalad” value (ducksalad [22]; [31]) was 85 and the “Plant response rating, Ducksalad” value (ducksalad [22]; 125 g ai/ha, scale 0 to 100) was 95. For the same compound, the “Plant response rating, Ducksalad” value (ducksalad [22]; 250 g ai/ha, scale 0 to 100) was 100, the “Plant response rating, Rice” value (rice [23]; [30]) was 0 and the “Plant response rating, Rice” value (rice [23]; [31]) was 0. The “Plant response rating, Rice” value (rice [23]; 125 g ai/ha, scale 0 to 100) was 25, the “Plant response rating, Rice” value (rice [23]; 250 g ai/ha, scale 0 to 100) was 25 and the “Pigweed plant response rating” value (pigweed [4]; [32]) was 90. For the same compound, the “Foxtail, Giant plant response rating” value (foxtail, giant [5]; [29]) was 100, the “Foxtail, Giant plant response rating” value (foxtail, giant [6]; [32]) was 80 and the “Plant response rating, Barnyardgrass” value (barnyardgrass [24]; [30]) was 0. For the same compound, the “Plant response rating, Barnyardgrass” value (barnyardgrass [24]; [31]) was 0, the “Plant response rating, Barnyardgrass” value (barnyardgrass [24]; 125 g ai/ha, scale 0 to 100) was 0 and the “Plant response rating, Barnyardgrass” value (barnyardgrass [24]; 250 g ai/ha, scale 0 to 100) was 20. The “Morningglory plant response rating” value (morningglory [7]; [32]) was 100, the “Morningglory plant response rating” value (morningglory [8]; [29]) was 100 and the “Barnyardgrass plant response rating” value (barnyardgrass [9]; 1000 g ai/ha, visual rating after approx. 10 days, 0 to 100 scale (0 no effect, 100 complete control)) was 60. For the same compound, the “Wheat plant response rating” value (wheat [10]; [32]) was 50, the “Wheat plant response rating” value (wheat [11]; [29]) was 50 and the “Barnyardgrass plant response rating” value (barnyardgrass [12]; [29]) was 90. The “Corn plant response rating” value (corn [13]; [29]) was 50, the “Velvetleaf plant response rating” value (velvetleaf [14]; [29]) was 30 and the “Velvetleaf plant response rating” value (velvetleaf [15]; [32]) was 100. For the same compound, the “Crabgrass, Large plant response rating” value (crabgrass, large [17]; [29]) was 100 and the “Corn plant response rating” value (corn [20]; [32]) was 50.
